# What was measured:
# Assay in all cases: NCI60 single-dose SRB assay
# Type in all cases: cell-based, human
# 786-0 = details: 786-0, Renal Cancer, 10 μM
# Experimental: (§1) Compounds 19 and 20 were supplied to National Cancer Institute (USA), for sulforhodamine B (SRB) assay and anticancer screening. Single-dose (10 µM) assay results for compounds 19 and 20 were provided as a mean of percent growth (% G) and growth inhibition (% GI) against 60 cell lines of nine types of cancers and are tabulated in Table 4. […] Both the compounds 19 and 20 were also found active on UO-31 renal cancer cell line with % GI of 21.18 and 29.95, respectively.
# (§2) Compounds 19 and 20 were supplied to National Cancer Institute (Bethesda, Maryland, USA), for in vitro sulforhodamine B (SRB) assay, anticancer screening on 60 cell lines of cancers of leukemia, melanoma, and tumors of the kidney, brain, breast, lung, colon, ovary, and prostate, as per their standard protocol. One dose anticancer results (NCI, USA) of compounds 19 and 20 are provided in the Supplementary Materials.
# NCI/ADR-RES = details: Ovarian Cancer, 10 μM
# Experimental: as §1, §2
# OVCAR-8 = details: OVCAR-8, Ovarian Cancer, 10 μM
# Experimental: as §1, §2
# T-47D = details: Breast Cancer, 10 μM
# Experimental: as §1, §2
# MDA-MB-435 = details: MDA-MB-435, Melanoma, 10 μM
# Experimental: as §1, §2
# HS 578T = details: Breast Cancer, 10 μM
# Experimental: as §1, §2
# HL-60(TB) = details: Leukemia, 10 μM
# Experimental: as §1, §2
# A498 = details: A498, Renal Cancer, 10 μM
# Experimental: as §1, §2
# MOLT-4 = details: MOLT-4, Leukemia, 10 μM
# Experimental: as §1, §2
# SNB-75 = details: SNB-75, CNS Cancer, 10 μM
# Experimental: as §1, §2
# M14 = details: M14, Melanoma, 10 μM
# Experimental: as §1, §2
# SK-OV-3 = details: SK-OV-3, Ovarian Cancer, 10 μM
# Experimental: as §1, §2
# COLO 205 = details: COLO 205, Colon Cancer, 10 μM
# Experimental: as §1, §2
# A549/ATCC = details: Non-Small Cell Lung Cancer, 10 μM
# Experimental: as §1, §2
# RPMI-8226 = details: RPMI-8226, Leukemia, 10 μM
# Experimental: as §1, §2
# SW-620 = details: SW-620, Colon Cancer, 10 μM
# Experimental: as §1, §2
# NCI-H226 = details: NCI-H226, Non-Small Cell Lung Cancer, 10 μM
# Experimental: as §1, §2
# DU-145 = details: DU-145, Prostate Cancer, 10 μM
# Experimental: as §1, §2
# HOP-62 = details: HOP-62, Non-Small Cell Lung Cancer, 10 μM
# Experimental: as §1, §2
# LOX IMVI = details: Melanoma, 10 μM
# Experimental: as §1, §2
# UO-31 = details: UO-31, Renal Cancer, 10 μM
# Experimental: as §1, §2
# HOP-92 = details: HOP-92, Non-Small Cell Lung Cancer, 10 μM
# Experimental: as §1, §2
# KM12 = details: KM12, Colon Cancer, 10 μM
# Experimental: as §1, §2
# HCT-15 = details: HCT-15, Colon Cancer, 10 μM
# Experimental: as §1, §2
# SF-539 = details: SF-539, CNS Cancer, 10 μM
# Experimental: as §1, §2
# K-562 = details: K-562, Leukemia, 10 μM
# Experimental: as §1, §2
# SK-MEL-2 = details: SK-MEL-2, Melanoma, 10 μM
# Experimental: as §1, §2
# TK-10 = details: TK-10, Renal Cancer, 10 μM
# Experimental: as §1, §2
# SK-MEL-5 = details: SK-MEL-5, Melanoma, 10 μM
# Experimental: as §1, §2
# U251 = details: U251, CNS Cancer, 10 μM
# Experimental: as §1, §2
# MDA-MB-231/ATCC = details: Breast Cancer, 10 μM
# Experimental: as §1, §2
smiles,measurement,setting,value
"NS(=O)(=O)c1ccc(N2CC(c3nc4ccccc4o3)CC2=O)cc1 (stereo not drawn) [Compound 20, 4-(4-(Benzo[d]oxazol-2-yl)-2-oxopyrrolidin-1-yl)benzenesulfonamide]",% G,786-0,98.99%
same,% GI,786-0,1.01%
same,% G,NCI/ADR-RES,101.45%
same,% GI,NCI/ADR-RES,−1.45%
same,% G,OVCAR-8,97.49%
same,% GI,OVCAR-8,2.51%
same,% G,T-47D,83.24%
same,% G,MDA-MB-435,100.55%
same,% GI,MDA-MB-435,−0.55%
same,% G,HS 578T,104.19%
same,% GI,HS 578T,−4.19%
same,% G,HL-60(TB),96.15%
same,% GI,HL-60(TB),3.85%
same,% G,A498,113.94%
same,% GI,A498,−13.94%
same,% G,MOLT-4,92.47%
same,% GI,MOLT-4,7.53%
same,% G,SNB-75,68.12%
same,% GI,SNB-75,31.88%
same,% G,M14,98.58%
same,% GI,M14,1.42%
same,% G,SK-OV-3,94.77%
same,% GI,SK-OV-3,5.23%
same,% G,COLO 205,104.05%
same,% GI,COLO 205,−4.05%
same,% G,A549/ATCC,95.28%
same,% GI,A549/ATCC,4.72%
same,% G,RPMI-8226,103.53%
same,% GI,RPMI-8226,−3.53%
same,% G,SW-620,102.95%
same,% GI,SW-620,−2.95%
same,% G,NCI-H226,92.75%
same,% GI,NCI-H226,7.25%
same,% G,DU-145,111.62%
same,% GI,DU-145,−11.62%
same,% G,HOP-62,81.97%
same,% GI,HOP-62,18.03%
same,% G,LOX IMVI,92.99%
same,% GI,LOX IMVI,7.01%
same,% G,UO-31,70.05%
same,% GI,UO-31,29.95%
same,% G,HOP-92,77.78%
same,% GI,HOP-92,22.22%
same,% G,KM12,101.16%
same,% GI,KM12,−1.16%
same,% G,HCT-15,101.16%
same,% GI,HCT-15,−1.16%
same,% G,SF-539,87.58%
same,% GI,SF-539,12.42%
same,% G,K-562,98.83%
same,% GI,K-562,1.17%
same,% G,SK-MEL-2,111.54%
same,% GI,SK-MEL-2,−11.54%
same,% G,TK-10,114.82%
same,% GI,TK-10,−14.82%
same,% G,SK-MEL-5,98.82%
same,% G,U251,95.21%
same,% GI,U251,4.79%
same,% G,MDA-MB-231/ATCC,80.11%
same,% GI,MDA-MB-231/ATCC,19.89%

# Reference: article PMC8074287, “Analgesic and Anticancer Activity of Benzoxazole Clubbed 2-Pyrrolidinones as Novel Inhibitors of Monoacylglycerol Lipase” (Molecules, 2021)
